Experiments:
Hepatotoxicity [1] = test system: Hepatotoxicity;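 as to HepSE bilirubinemia: bilirubinemia hepatic side effect score drawn from the DILIps training data, a prediction system for drug-induced liver injury; call rule not given here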;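 as to HepSE cholecystitis: Cholecystitis-related hepatic side effect score drawn from the DILIps (drug-induced liver injury prediction) training data set; call rule not given here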;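 as to HepSE cholelithiasis: hepatic side effect score for cholelithiasis, drawn from the DILIps training data for predicting drug-induced liver injury; call rule not given here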;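 as to HepSE cirrhosis: cirrhosis hepatic side effect score taken from the DILIps (drug-induced liver injury prediction) training set; call rule not given here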;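 as to HepSE elevated liver function tests: hepatic side effect score for raised liver function tests, as recorded in the DILIps training set used for predicting drug-induced liver injury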; as to HepSE hepatic failure: call rule not given here;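 as to HepSE hepatomegaly: hepatic side effect score for hepatomegaly, taken from the training set of the DILIps drug-induced liver injury prediction system; call rule not given here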
Hepatotoxicity [2] = test system: Hepatotoxicity; remark: listed apart in the source;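 as to HepSE bilirubinemia: bilirubinemia hepatic side effect score drawn from the DILIps training data, a prediction system for drug-induced liver injury; call rule not given here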;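 as to HepSE cholecystitis: Cholecystitis-related hepatic side effect score drawn from the DILIps (drug-induced liver injury prediction) training data set; call rule not given here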;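 as to HepSE cholelithiasis: hepatic side effect score for cholelithiasis, drawn from the DILIps training data for predicting drug-induced liver injury; call rule not given here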;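 as to HepSE cirrhosis: cirrhosis hepatic side effect score taken from the DILIps (drug-induced liver injury prediction) training set; call rule not given here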;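 as to HepSE elevated liver function tests: hepatic side effect score for raised liver function tests, as recorded in the DILIps training set used for predicting drug-induced liver injury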; as to HepSE hepatic failure: call rule not given here
Hepatotoxicity [3] = test system: Hepatotoxicity; remark: listed apart in the source;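 as to HepSE bilirubinemia: bilirubinemia hepatic side effect score drawn from the DILIps training data, a prediction system for drug-induced liver injury; call rule not given here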;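 as to HepSE cholecystitis: Cholecystitis-related hepatic side effect score drawn from the DILIps (drug-induced liver injury prediction) training data set; call rule not given here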;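 as to HepSE cholelithiasis: hepatic side effect score for cholelithiasis, drawn from the DILIps training data for predicting drug-induced liver injury; call rule not given here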;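 as to HepSE cirrhosis: cirrhosis hepatic side effect score taken from the DILIps (drug-induced liver injury prediction) training set; call rule not given here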;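 as to HepSE elevated liver function tests: hepatic side effect score for raised liver function tests, as recorded in the DILIps training set used for predicting drug-induced liver injury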; as to HepSE hepatic failure: call rule not given here
Hepatotoxicity [4] = test system: Hepatotoxicity; remark: listed apart in the source;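 as to HepSE bilirubinemia: bilirubinemia hepatic side effect score drawn from the DILIps training data, a prediction system for drug-induced liver injury; call rule not given here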;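 as to HepSE cholecystitis: Cholecystitis-related hepatic side effect score drawn from the DILIps (drug-induced liver injury prediction) training data set; call rule not given here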;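 as to HepSE cholelithiasis: hepatic side effect score for cholelithiasis, drawn from the DILIps training data for predicting drug-induced liver injury; call rule not given here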;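 as to HepSE cirrhosis: cirrhosis hepatic side effect score taken from the DILIps (drug-induced liver injury prediction) training set; call rule not given here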;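 as to HepSE elevated liver function tests: hepatic side effect score for raised liver function tests, as recorded in the DILIps training set used for predicting drug-induced liver injury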; as to HepSE hepatic failure: call rule not given here
Hepatotoxicity [5] = test system: Hepatotoxicity; remark: listed apart in the source; as to HepSE hepatic failure: call rule not given here
Hepatotoxicity [6] = test system: Hepatotoxicity; remark: listed apart in the source; as to HepSE hepatic failure: call rule not given here
Hepatotoxicity [7] = test system: Hepatotoxicity; remark: listed apart in the source
Hepatotoxicity [8] = test system: Hepatotoxicity; remark: listed apart in the source
Hepatotoxicity [9] = test system: Hepatotoxicity; remark: listed apart in the source
Hepatotoxicity [10] = test system: Hepatotoxicity; remark: listed apart in the source
Hepatotoxicity [11] = test system: Hepatotoxicity; remark: listed apart in the source
Hepatotoxicity [12] = test system: Hepatotoxicity; remark: listed apart in the source
Hepatotoxicity [13] = test system: Hepatotoxicity; remark: listed apart in the source
Hepatotoxicity [14] = test system: Hepatotoxicity; remark: listed apart in the source

| SMILES | HepSE_bilirubinemia (Hepatotoxicity [1]) | HepSE_cholecystitis (Hepatotoxicity [2]) | HepSE_cholelithiasis (Hepatotoxicity [3]) | HepSE_cirrhosis (Hepatotoxicity [4]) | HepSE_elevated liver function tests (Hepatotoxicity [5]) | HepSE_hepatic failure (Hepatotoxicity [6]) | HepSE_hepatic necrosis (Hepatotoxicity [7]) | HepSE_hepatitis (Hepatotoxicity [8]) | HepSE_hepatomegaly (Hepatotoxicity [9]) | HepSE_jaundice (Hepatotoxicity [10]) | HepSE_liver disease (Hepatotoxicity [11]) | HepSE_liver fatty (Hepatotoxicity [12]) | HepSE_liver function tests abnormal (Hepatotoxicity [13]) | HepSE_Combined Scores (Hepatotoxicity [14]) | further results |
| --- | --- | --- | --- | --- | --- | --- | --- | --- | --- | --- | --- | --- | --- | --- | --- |
| CC(=O)NCCCS(=O)(=O)O [ACAMPROSATE] | 1 | 1 | 0 | 1 | 0 | 0 | 0 | 1 | 0 | 0 | 0 | 0 | 1 | 5 |  |
| C[C@H]1O[C@H](O[C@H]2[C@H](O)[C@@H](O)[C@@H](O[C@H]3[C@H](O)[C@@H](O)C(O)O[C@@H]3CO)O[C@@H]2CO)[C@H](O)[C@@H](O)[C@@H]1N[C@H]1C=C(CO)[C@@H](O)[C@H](O)[C@H]1O (some centres not stated) [ACARBOSE] | 0 | 0 | 0 | 0 | 0 | 0 | 0 | 1 | 0 | 1 | 0 | 0 | 1 | 3 |  |
| CCCC(=O)Nc1ccc(OCC(O)CNC(C)C)c(C(C)=O)c1 (configuration not stated) [ACEBUTOLOL] | 0 | 0 | 0 | 0 | 0 | 0 | 0 | 0 | 0 | 0 | 0 | 0 | 0 | 0 |  |
| CC(=O)Nc1nnc(S(N)(=O)=O)s1 [ACETAZOLAMIDE] | 0 | 0 | 0 | 0 | 0 | 0 | 1 | 0 | 0 | 1 | 0 | 0 | 0 | 2 |  |
| CC(=O)O [ACETIC ACID] |  |  |  |  |  |  |  |  |  |  |  |  |  |  | HepSE_bilirubinemia (Hepatotoxicity [1]; Liver): 0; HepSE_cholecystitis (Hepatotoxicity [2]; Liver): 0; HepSE_cholelithiasis (Hepatotoxicity [3]; Liver): 0; HepSE_cirrhosis (Hepatotoxicity [4]; Liver): 0; HepSE_elevated liver function tests (Hepatotoxicity [5]; Liver): 0; HepSE_hepatic failure (Hepatotoxicity [6]; Liver): 0; HepSE_hepatic necrosis (Hepatotoxicity [7]; Liver): 0; HepSE_hepatitis (Hepatotoxicity [8]; Liver): 0; HepSE_hepatomegaly (Hepatotoxicity [9]; Liver): 0; HepSE_jaundice (Hepatotoxicity [10]; Liver): 0; HepSE_liver disease (Hepatotoxicity [11]; Liver): 0; HepSE_liver fatty (Hepatotoxicity [12]; Liver): 0; HepSE_liver function tests abnormal (Hepatotoxicity [13]; Liver): 0; HepSE_Combined Scores (Hepatotoxicity [14]; Liver): 0 |
| CC(=O)OCC[N+](C)(C)C [ACETYLCHOLINE] |  |  |  |  |  |  |  |  |  |  |  |  |  |  | HepSE_bilirubinemia (Hepatotoxicity [1]; Liver): 0; HepSE_cholecystitis (Hepatotoxicity [2]; Liver): 0; HepSE_cholelithiasis (Hepatotoxicity [3]; Liver): 0; HepSE_cirrhosis (Hepatotoxicity [4]; Liver): 0; HepSE_elevated liver function tests (Hepatotoxicity [5]; Liver): 0; HepSE_hepatic failure (Hepatotoxicity [6]; Liver): 0; HepSE_hepatic necrosis (Hepatotoxicity [7]; Liver): 0; HepSE_hepatitis (Hepatotoxicity [8]; Liver): 0; HepSE_hepatomegaly (Hepatotoxicity [9]; Liver): 0; HepSE_jaundice (Hepatotoxicity [10]; Liver): 0; HepSE_liver disease (Hepatotoxicity [11]; Liver): 0; HepSE_liver fatty (Hepatotoxicity [12]; Liver): 0; HepSE_liver function tests abnormal (Hepatotoxicity [13]; Liver): 0; HepSE_Combined Scores (Hepatotoxicity [14]; Liver): 0 |
| CC(=O)N[C@@H](CS)C(=O)O [ACETYLCYSTEINE] | 0 | 0 | 0 | 0 | 0 | 0 | 0 | 0 | 0 | 0 | 0 | 0 | 0 | 0 |  |
| COc1cc(C)c(/C=C/C(C)=C/C=C/C(C)=C/C(=O)O)c(C)c1C [ACITRETIN] | 0 | 0 | 0 | 0 | 1 | 0 | 0 | 1 | 0 | 1 | 0 | 0 | 0 | 3 |  |
| Nc1nc2c(ncn2COCCO)c(=O)[nH]1 [ACYCLOVIR] | 1 | 0 | 0 | 0 | 1 | 0 | 0 | 1 | 0 | 1 | 0 | 0 | 0 | 4 |  |
| CC(C)(C)C(=O)OCOP(=O)(COCCn1cnc2c(N)ncnc21)OCOC(=O)C(C)(C)C [ADEFOVIR DIPIVOXIL] | 0 | 0 | 0 | 0 | 0 | 1 | 0 | 0 | 0 | 0 | 0 | 0 | 0 | 1 |  |
| Nc1ncnc2c1ncn2[C@@H]1O[C@H](CO)[C@@H](O)[C@H]1O [ADENOSINE] | 0 | 0 | 0 | 0 | 0 | 0 | 0 | 0 | 0 | 0 | 0 | 0 | 0 | 0 |  |
| CCCSc1ccc2nc(NC(=O)OC)[nH]c2c1 [ALBENDAZOLE] | 0 | 0 | 0 | 0 | 0 | 1 | 0 | 1 | 0 | 0 | 1 | 0 | 0 | 3 |  |
| CC(C)(C)NCC(O)c1ccc(O)c(CO)c1 (configuration not stated) [ALBUTEROL] |  |  |  |  |  |  |  |  |  |  |  |  |  |  | HepSE_bilirubinemia (Hepatotoxicity [1]; Liver): 0; HepSE_cholecystitis (Hepatotoxicity [2]; Liver): 0; HepSE_cholelithiasis (Hepatotoxicity [3]; Liver): 0; HepSE_cirrhosis (Hepatotoxicity [4]; Liver): 0; HepSE_elevated liver function tests (Hepatotoxicity [5]; Liver): 0; HepSE_hepatic failure (Hepatotoxicity [6]; Liver): 0; HepSE_hepatic necrosis (Hepatotoxicity [7]; Liver): 0; HepSE_hepatitis (Hepatotoxicity [8]; Liver): 0; HepSE_hepatomegaly (Hepatotoxicity [9]; Liver): 0; HepSE_jaundice (Hepatotoxicity [10]; Liver): 0; HepSE_liver disease (Hepatotoxicity [11]; Liver): 0; HepSE_liver fatty (Hepatotoxicity [12]; Liver): 0; HepSE_liver function tests abnormal (Hepatotoxicity [13]; Liver): 0; HepSE_Combined Scores (Hepatotoxicity [14]; Liver): 0 |
| C[C@@H]1C[C@H]2[C@H]3[C@H]([C@@H](O)C[C@]2(C)[C@@]1(O)C(=O)CO)[C@@]1(C)C=CC(=O)C=C1C[C@H]3Cl [ALCLOMETASONE] | 0 | 0 | 0 | 0 | 0 | 0 | 0 | 0 | 0 | 0 | 0 | 0 | 0 | 0 |  |
| COc1cc2nc(N(C)CCCNC(=O)C3CCCO3)nc(N)c2cc1OC (configuration not stated) [ALFUZOSIN] | 0 | 0 | 0 | 0 | 0 | 0 | 0 | 0 | 0 | 1 | 1 | 0 | 0 | 2 |  |
| Oc1ncnc2[nH]ncc12 [ALLOPURINOL] | 1 | 0 | 0 | 0 | 0 | 0 | 1 | 1 | 1 | 1 | 0 | 0 | 0 | 5 |  |
| CN(C)CCc1c[nH]c2ccc(CS(=O)(=O)N3CCCC3)cc12 [ALMOTRIPTAN] | 0 | 0 | 0 | 0 | 0 | 0 | 0 | 0 | 0 | 0 | 0 | 0 | 0 | 0 |  |
| Cc1[nH]cnc1CN1CCc2c(c3ccccc3n2C)C1=O [ALOSETRON] | 0 | 1 | 0 | 0 | 0 | 0 | 0 | 1 | 0 | 1 | 0 | 0 | 0 | 3 |  |

From ChEMBL document CHEMBL1909294, “Translating clinical findings into knowledge in drug safety evaluation--drug induced liver injury prediction system (DILIps)” (PLoS Comput Biol, 2011)
